Assay results taken from patent US20170216225A1, “METHOD FOR ANTICOAGULATION” (priority 2016, published 2017).

Assays:
Type in all cases: in vivo
mice = assay: Tolerability of intraperitoneal IA in mice
From the text: (§1) In other words, IA is not harmful to the health of mammals even at high doses.

[1] = tested on: extrinsic pathway of coagulation system; assay: Prothrombin time (PT) of plasma from IA-treated mice
Method: The 5- to 6-week old male C57BL/6JNar1 mice having body weights around 20 g were purchased from National Laboratory Animal Center, Taipei, Taiwan.
Coagulation system in blood is composed of intrinsic and extrinsic pathways. The intrinsic pathway is assayed by activated thromboplastin time (aPTT) and the extrinsic pathway is assayed by prothrombin time (PT). Following intraperitoneal injection of various dose of IA, plasma was obtained at different periods of time and was assayed for aPTT and PT. aPTT and PT were assayed in a Stago ST4 coagulation analyzer (ST art 4, Diagnostica Stago, France).
By carbon dioxide anesthesia of mice, blood was obtained by cardiac puncture using 3.2% sodium citrate mixing with blood at a ratio of 1:9. The blood was centrifuged at 2000g/rpm for 10 minutes to get the mouse plasma, which was assayed immediately.
PT was assayed in 4-fold dilution of PT reagent, composed of four parts including one part of PT reagent, one part of 25 mM CaCl solution, and two parts of sterile water. In PT assay, 0.1 mL of plasma was put into each of 4 barrette cuvette, each of which had one steel ball, and was kept at 37° C. for 1 min in Stago ST4 coagulation analyzer. Then, 0.2 mL of the diluted PT reagent was added for PT detection.
Moreover, to investigate the anticoagulation effect in the extrinsic pathway of coagulation system in the IA-treated mice, the PT was measured at different treatment times. Different groups of mice (n=6) were respectively intraperitoneally injected with 1 mL of 1000 ppm ([…]) IA, blood was drawn 1 hr, 2 hr, 3 hr, and 24 hr after IA injection. Ten mice were injected with vehicle (n=10) and were served as controls. Then, the PT of each group was measured. FIG. 3A is a diagram of Table 2-1.
To investigate the anticoagulation effect in the extrinsic pathway of coagulation system in the IA-treated mice, the PT was also measured under different doses of IA. Various doses of IA (1 ppm, 10 ppm, 100 ppm, 1,000 ppm) in 1 mL, were intraperitoneally injected into different groups of mice (n=6), respectively. Plasma was separated 3 hr later. Ten mice were injected with vehicle and were served as controls. The PT of each group was measured. FIG. 3B is a diagram of Table 2-2.

[2] = tested on: intrinsic pathway of coagulation system; assay: Activated partial thromboplastin time (aPTT) of plasma from IA-treated mice
Method: The 5- to 6-week old male C57BL/6JNar1 mice having body weights around 20 g were purchased from National Laboratory Animal Center, Taipei, Taiwan. Coagulation system in blood is composed of intrinsic and extrinsic pathways. The intrinsic pathway is assayed by activated thromboplastin time (aPTT) and the extrinsic pathway is assayed by prothrombin time (PT). Following intraperitoneal injection of various dose of IA, plasma was obtained at different periods of time and was assayed for aPTT and PT. aPTT and PT were assayed in a Stago ST4 coagulation analyzer (ST art 4, Diagnostica Stago, France). By carbon dioxide anesthesia of mice, blood was obtained by cardiac puncture using 3.2% sodium citrate mixing with blood at a ratio of 1:9. The blood was centrifuged at 2000g/rpm for 10 minutes to get the mouse plasma, which was assayed immediately. aPTT was assayed in 4-fold dilution of aPTT r reagent using kit-provided buffer solution as diluent. In aPTT assay, 0.1 mL of plasma was kept warm for 1 min at 37° C. in a barrette of 4 cuvettes in Stago ST4 coagulation analyzer, then 0.1 mL of 4 fold-diluted aPTT reagent and one steel ball were added and waited for 180 seconds. Finally, 0.1 mL of 25 mM CaCl2 solution was added for aPTT detection. To investigate the anticoagulation effect in the intrinsic pathway of coagulation system in the IA-treated mice, the aPTT was measured at different treatment times. Mouse (n=6) was intraperitoneally injected with 1 mL of 1000 ppm ([…]) IA, blood was drawn 1 hr, 2 hr, 3 hr, and 24 hr after IA injection. Ten mice were injected with vehicle (n=10) and were served as controls. Then, the aPTT of each group was measured. FIG. 2A is a diagram of Table 1-1. To investigate the anticoagulation effect in the intrinsic pathway of coagulation system the IA-treated mice, the aPTT was also measured under different doses of IA. Various doses of IA (1 ppm, 10 ppm, 100 ppm, 1,000 ppm) in 1 mL, were intraperitoneally injected into different groups of mice (n=6), respectively. Plasma was separated 3 hr later. Ten mice were injected with vehicle and were served as controls. The aPTT of each group was measured. FIG. 2B is a diagram of Table 1-2.

rats = assay: Tolerability of IA in rats; conditions: 1 mL of 30,000 ppm IA
From the text: as §1

[3] = 1 mL i.p., 3 hr after injection
[4] = 1 mL of 1000 ppm (0.05 mL/kg) IA i.p., treatment time 1 hr
[5] = 1 mL of 1000 ppm (0.05 mL/kg) IA i.p., treatment time 2 hr
[6] = 1 mL of 1000 ppm (0.05 mL/kg) IA i.p., treatment time 3 hr
[7] = 1 mL of 1000 ppm (0.05 mL/kg) IA i.p., treatment time 24 hr
[8] = injected dose 1 ppm in 1 mL i.p., 3 hr after injection
[9] = injected dose 10 ppm in 1 mL i.p., 3 hr after injection
[10] = injected dose 100 ppm in 1 mL i.p., 3 hr after injection
[11] = injected dose 1000 ppm in 1 mL i.p., 3 hr after injection

CC(C)CCN [IA, 3-methyl-1-butanamine]
Tolerance of intraperitoneal injection (mice; BALB/C mice (20 g), 1 mL of 20,000 ppm (0.1 mL/kg) i.p.): could tolerate
Physiological state after IA (mice; mice, 1 mL of 1,000 ppm (0.05 mL/kg) IA): normal physiological state can be maintained
Dose at which PT was obviously prolonged (statistical meaning) [1, 3]: 1000 ppm
Mean of PT [1, 4]: 11.6 s
Mean of PT [1, 5]: 12.2 s
Mean of PT [1, 6]: 12.6 s
Mean of PT [1, 7]: 13.2 s
Treatment time after which PT prolongation has statistical meaning ([1]; 1 mL of 1000 ppm IA i.p.): 2 h
Mean of PT [1, 8]: 11.2 s
Mean of PT [1, 9]: 11.4 s
Mean of PT [1, 10]: 11.5 s
Mean of PT [1, 11]: 12.6 s
Lowest dose with anticoagulation effect in the intrinsic pathway (aPTT prolonged, statistical meaning) [2, 3]: 1 ppm
Mean of aPTT [2, 4]: 30.8 s
Mean of aPTT [2, 5]: 32.0 s
Mean of aPTT [2, 6]: 33.7 s
Mean of aPTT [2, 7]: 34.8 s
Treatment time after which aPTT prolongation has statistical meaning ([2]; 1 mL of 1000 ppm IA i.p.): 1 h
Mean of aPTT [2, 8]: 33.0 s
Mean of aPTT [2, 9]: 33.0 s
Mean of aPTT [2, 10]: 33.4 s
Mean of aPTT [2, 11]: 33.7 s
Physiological state after IA (rats): normal physiological state can also be maintained
